Here are results for two molecules from patent publication US20240245753A1, “METHODS OF REDUCING SIDE EFFECTS OF ANTI-CD30 ANTIBODY DRUG CONJUGATE THERAPY” (priority 2017, published 2024).

Read-outs that look alike come from different tables or passages of the source.

Data set [1] deals with newly diagnosed CD30-positive mature T- and NK-cell neoplasms, including sALCL. To be noted: given concomitantly with CHP; cited from earlier work.
In data set [2] the test system is relapsed or refractory sALCL. The following applies: cited from earlier work.
Data set [3] in a line: Randomized, double-blind Phase 3 clinical trial of A+CHP versus CHOP: safety (adverse events, exposure). To be noted: human, in vivo. The source says:
TRIAL DESIGN: Approximately 450 patients (approximately 225 patients per treatment arm) are randomized in this study. The standard of care in this patient population consists of 6-8 cycles of CHOP chemotherapy. Patients are randomized in a 1:1 manner to receive 21-day cycles of treatment in 1 of the following 2 treatment groups: Standard-of-care arm: 6-8 cycles of CHOP; or Experimental arm: 6-8 cycles of brentuximab vedotin plus CHP (A+CHP). A target of 8 cycles of study treatment are administered, per investigator decision, based on patient-specific characteristics, including stage of disease and IPI risk score.
Safety is evaluated by the incidence of adverse events, using the Medical Dictionary for Regulatory Activities (MedDRA; v19.0), and National Cancer Institute Common Terminology Criteria for Adverse Events v4.03, and by changes in vital signs, and clinical laboratory results.
All efficacy evaluations are conducted using the intent-to-treat population unless otherwise specified. Safety is analyzed in patients who received at least one dose of study drug (safety population).
Subjects were randomly assigned in a 1:1 ratio to receive 21-day cycles of either A+CHP or CHOP for 6 or 8 cycles, with the number of cycles determined at the outset and based on investigator discretion. […]

brentuximab vedotin: the maximum tolerated dose in data set [1] was 1.8 mg/kg. Also, in data set [2] (1.8 mg/kg every 3 weeks), the “median duration of response” value is 12.6 months, the “objective response (CR+PR) rate” value is 86% and the “patients achieving a CR” value is reported as 57%. Also, the tolerability result in data set [2] (manageable side effects) is recorded as “generally well tolerated”. Besides, the “median duration of response” value in data set [2] (subset of patients who achieved a CR) is 13.2 months.

B1: G-CSF (protein, UniProt P09919 31-207, looked up)
Granulocyte …: TPLGPASSLPQSFLLKCLEQVRKIQGDGAALQEKLVSECATYKLCHPEELVLLGHSLGIPWAPLSSCPSQALQLAGCLSQLHSGLFLYQGLLQALEGISPELGPTLDTLQLDVADFATTIWQQMEELGMAPALQPTQGAMPAFASAFQRRAGGVLVASHLQSFLEVSYRVLRHLAQP
Consider B1, for which the “effect of primary prophylactic G-CSF on febrile neutropenia” value in data set [3] is “reduced the incidence and severity”.
